Measured values from ChEMBL document CHEMBL1145317, “Hit-to-lead optimization of 1,4-dihydroindeno[1,2-c]pyrazoles as a novel class of KDR kinase inhibitors” (Bioorg Med Chem Lett, 2006).

Legend:
[1] = target: T1, Vascular endothelial growth factor receptor 2 (Homo sapiens, UniProt P35968)
Angiopoietin-1 receptor = Angiopoietin-1 receptor (Homo sapiens, UniProt Q02763); assay: Inhibition of Tie2 by HTRF assay
[2] = target: Fibroblast growth factor receptor (Homo sapiens, UniProt P22607+P11362+P22455+P21802); assay: Inhibition of FGFR by HTRF assay; format: protein assay
Mus musculus = assay: Activity against estradiol-induced uterine edema in orally dosed murine; format: functional; details: po
[3] = target: T1, Vascular endothelial growth factor receptor 2; assay: Inhibition of VEGF-induced human KDR phosphorylation transfected in NIH3T3 cells by ELISA; format: functional, cell-based
[4] = target: Mast/stem cell growth factor receptor Kit (Homo sapiens, UniProt P10721); assay: Inhibition of cKit by HTRF assay
[5] = target: Hepatocyte growth factor receptor (Homo sapiens, UniProt P08581); assay: Inhibition of cMet by HTRF assay
[6] = target: Vascular endothelial growth factor receptor 1 (Homo sapiens, UniProt P17948); assay: Inhibition of FLT1 by HTRF assay
[7] = target: Tyrosine-protein kinase Lck (Homo sapiens, UniProt P06239); assay: Inhibition of Lck by HTRF assay
[8] = target: Vascular endothelial growth factor receptor 3 (Homo sapiens, UniProt P35916); assay: Inhibition of FLT4 by HTRF assay
[9] = target: Platelet-derived growth factor receptor (Homo sapiens, UniProt P09619+P16234); assay: Inhibition of PDGFR by HTRF assay; format: protein-complex assay

CC(C)N1CCN(Cc2ccc3c(c2)-c2n[nH]c(-c4ccsc4)c2C3)CC1
IC50 [1]: 0.19 µM

O=CN1CCN(Cc2ccc3c(c2)-c2n[nH]c(-c4ccsc4)c2C3)CC1
IC50 [1]: 0.665 µM

CN1CCN(CCc2ccc3c(c2)-c2n[nH]c(-c4ccsc4)c2C3)CC1
IC50 [1]: 0.143 µM

c1cn(Cc2ccc3c(c2)-c2[nH]nc(-c4ccsc4)c2C3)cn1
IC50 (Angiopoietin-1 receptor): 17.6 µM
IC50 [2]: 34.355 µM
ED50 (Mus musculus): 20 mg/kg
IC50 [3]: 0.293 µM
IC50 [1]: 0.147 µM
IC50 [4]: 0.103 µM
IC50 [5]: > 50 µM
IC50 [6]: 0.601 µM
IC50 [7]: 21.1 µM
IC50 [8]: 0.169 µM

CN1CCN(Cc2ccc3c(c2)Cc2c-3n[nH]c2-c2cc3ccccc3s2)CC1
IC50 [1]: > 50 µM

CN1CCN(Cc2ccc3c(c2)-c2[nH]nc(-c4ccsc4)c2C3)CC1
IC50 (Angiopoietin-1 receptor): 47.8 µM
IC50 [2]: > 50 µM
IC50 [9]: > 50 µM
IC50 [1]: 0.18 µM
IC50 [4]: 0.145 µM
IC50 [5]: > 50 µM
IC50 [6]: 0.97 µM
IC50 [7]: > 50 µM
IC50 [8]: 1.57 µM

CCN(CC)Cc1ccc2c(c1)-c1n[nH]c(-c3ccsc3)c1C2
IC50 [1]: 0.824 µM

c1ncn(Cc2ccc3c(c2)-c2n[nH]c(-c4ccsc4)c2C3)n1
IC50 [1]: 0.108 µM

c1cn(Cc2ccc3c(c2)-c2[nH]nc(-c4ccsc4)c2C3)nn1
IC50 [1]: 0.19 µM

CN1CCN(c2ccc3c(c2)Cc2c(-c4cccs4)n[nH]c2-3)CC1
IC50 [1]: 1000 µM

CN1CCN(C(=O)c2ccc3c(c2)-c2[nH]nc(-c4ccsc4)c2C3)CC1
IC50 [1]: 4.08 µM

Cc1ccsc1-c1[nH]nc2c1Cc1cc(CN3CCN(C)CC3)ccc1-2
IC50 [1]: > 50 µM
